From ChEMBL document CHEMBL2439978, “Perindopril and ramipril phosphonate analogues as a new class of angiotensin converting enzyme inhibitors” (Bioorg Med Chem, 2013)
pIC50: −log10 of the molar value.

Columns and labels:
[1] = biological target: T1, Angiotensin-converting enzyme (Homo sapiens, UniProt P12821); test: Inhibition of recombinant human ACE using (7-methoxycoumarin-4-yl)acetyl-Arg-Pro-Pro-Gly-Phe-Ser-Ala-Phe-Lys(2,4-dinitrophenyle)-OH as substrate after 30 mins by fluorescence assay
T1 sequence (P12821 whole entry): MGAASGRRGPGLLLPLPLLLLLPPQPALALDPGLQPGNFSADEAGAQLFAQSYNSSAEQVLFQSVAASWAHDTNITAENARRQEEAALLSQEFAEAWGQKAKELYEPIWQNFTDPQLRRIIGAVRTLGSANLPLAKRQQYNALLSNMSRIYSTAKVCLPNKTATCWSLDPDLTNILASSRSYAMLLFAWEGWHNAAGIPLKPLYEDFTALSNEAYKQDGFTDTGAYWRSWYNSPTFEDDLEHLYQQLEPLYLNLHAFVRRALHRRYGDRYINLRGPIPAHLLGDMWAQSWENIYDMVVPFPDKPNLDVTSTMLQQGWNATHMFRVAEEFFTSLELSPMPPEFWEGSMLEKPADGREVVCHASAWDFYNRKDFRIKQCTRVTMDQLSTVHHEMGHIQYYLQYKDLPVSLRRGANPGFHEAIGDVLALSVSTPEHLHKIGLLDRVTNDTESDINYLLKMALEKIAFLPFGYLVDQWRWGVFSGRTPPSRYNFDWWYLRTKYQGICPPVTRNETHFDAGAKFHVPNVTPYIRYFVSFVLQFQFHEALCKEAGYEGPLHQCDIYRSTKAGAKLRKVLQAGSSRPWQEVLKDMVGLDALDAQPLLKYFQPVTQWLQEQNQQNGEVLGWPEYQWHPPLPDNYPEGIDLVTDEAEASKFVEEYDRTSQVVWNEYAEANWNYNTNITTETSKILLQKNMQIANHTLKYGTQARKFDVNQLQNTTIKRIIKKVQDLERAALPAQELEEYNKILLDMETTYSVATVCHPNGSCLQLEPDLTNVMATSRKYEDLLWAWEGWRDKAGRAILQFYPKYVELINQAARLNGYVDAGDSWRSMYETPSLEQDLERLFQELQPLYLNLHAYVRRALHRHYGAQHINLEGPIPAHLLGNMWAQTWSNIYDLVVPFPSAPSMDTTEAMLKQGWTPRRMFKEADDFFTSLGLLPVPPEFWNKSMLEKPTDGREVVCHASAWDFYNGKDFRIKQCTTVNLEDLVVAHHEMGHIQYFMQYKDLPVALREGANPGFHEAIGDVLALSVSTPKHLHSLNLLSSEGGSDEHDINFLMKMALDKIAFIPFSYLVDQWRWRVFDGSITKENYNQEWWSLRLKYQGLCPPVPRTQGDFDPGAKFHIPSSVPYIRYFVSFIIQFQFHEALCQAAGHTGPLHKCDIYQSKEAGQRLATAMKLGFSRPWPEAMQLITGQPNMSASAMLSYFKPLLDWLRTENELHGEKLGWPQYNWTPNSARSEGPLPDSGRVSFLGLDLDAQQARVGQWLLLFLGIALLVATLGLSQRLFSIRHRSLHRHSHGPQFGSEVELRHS

[2] = biological target: T1, Angiotensin-converting enzyme; test: Inhibition of ACE (unknown origin)

| Compound | pIC50 [1] | pIC50 [2] |
| --- | --- | --- |
| CCCC(N[C@@H](C)C(=O)N1[C@H](C(=O)O)C[C@@H]2CCCC[C@@H]21)P(=O)(O)O (stereo partly drawn) | 7.52 |  |
| C[C@H](NC(CCc1ccccc1)P(=O)(O)O)C(=O)N1[C@H](C(=O)O)C[C@@H]2CCCC[C@@H]21 (stereo partly drawn) | 7.40 |  |
| CCC[C@H](N[C@@H](C)C(=O)N1[C@H](C(=O)O)C[C@@H]2CCCC[C@@H]21)C(=O)OCC [PERINDOPRIL] |  | 8.82 |
